Columns and labels:
[1] = Viscosity measurement of octreotide acetate physiologically active composition (micron sample viscometer); format: physicochemical; conditions: 25° C.
Protocol: The octreotide acetate concentration and the propylene glycol or glycerin concentration were adjusted as shown in Table 3 and Table 4 to prepare a physiologically active composition. The viscosity of the obtained physiologically active composition was measured ten times with a micron sample viscometer (RHEOSENSE INC., Micron Sample-Viscometer/Rheometer-on-a-chip VROCTM), and the mean value was calculated to be shown in Table 3 and Table 4.

[2] = Viscosity imparting test in nonaqueous formulation (polymer compound solubility and viscosity); format: physicochemical; conditions: 25° C.
Protocol: With respect to each solvent of propylene glycol and glycerin, polymer compounds shown in Table 5 and Table 6 were added to prepare mixed solutions. Each concentration of the polymer compounds was designed in consideration of the molecular weight and the like. […] Separately, the viscosity of the mixed solution or the solution after the stirring was determined with a micron sample viscometer at 25° C.

Viscosity Avg. ([1]; octreotide acetate 20 / glycerin 80 % by weight) | Viscosity Avg. ([1]; octreotide acetate 20 / propylene glycol 80 % by weight) [cps] | Viscosity Avg. ([1]; octreotide acetate 30 / glycerin 70 % by weight) | Viscosity Avg. ([1]; octreotide acetate 35 / glycerin 65 % by weight) | Viscosity Avg. ([1]; octreotide acetate 40 / glycerin 60 % by weight) | Viscosity Avg. ([1]; octreotide acetate 40 / propylene glycol 60 % by weight) | Viscosity Avg. ([1]; octreotide acetate 50 / glycerin 50 % by weight) | Viscosity Avg. ([1]; octreotide acetate 50 / propylene glycol 50 % by weight) | Viscosity Avg. ([1]; octreotide acetate 60 / glycerin 40 % by weight) | Viscosity Avg. ([1]; octreotide acetate 60 / propylene glycol 40 % by weight) | Viscosity Avg. ([1]; octreotide acetate 70 / propylene glycol 30 % by weight) | Viscosity Avg. ([1]; octreotide acetate 80 / propylene glycol 20 % by weight) | Compound | Viscosity ([2]; glycerin, additive concentration 0.5 % by mass) | Viscosity ([2]; propylene glycol, additive concentration 1.0 % by mass) [mPa · s]
2,900 cps | 200 | 9,000 cps | 12,000 cps | 15,000 cps | 1,600 cps | 21,000 cps | 5,400 cps | 27,000 cps | 15,000 cps | 45,000 cps | 133,000 cps | C[C@@H](O)[C@@H]1NC(=O)[C@H](CCCCN)NC(=O)[C@@H](Cc2c[nH]c3ccccc23)NC(=O)[C@H](Cc2ccccc2)NC(=O)[C@@H](NC(=O)[C@H](N)Cc2ccccc2)CSSC[C@@H](C(=O)N[C@H](CO)[C@@H](C)O)NC1=O [Octreotide acetate] |  | 
 |  |  |  |  |  |  |  |  |  |  |  | Protamine | 1,442 mPa · s | 53
